Experimental data from PubChem BioAssay AID328 (DTP/NCI, 2004).
Where “and” joins values, the source holds several entries; their conditions need not be identical. Equal values may be shown once. Toxic doses and inconclusive results are not listed. How the source made its calls: active means survival T/C of 150% or more; inactive means T/C below 125% in these data.

System: BDF1 mice, P388 leukemia ip, median survival T/C
Assay: NCI In Vivo Anticancer Drug Screen. Data for tumor model P388 Leukemia (intraperitoneal) in B6D2F1 (BDF1) mice
Conditions: endpoint: median survival time, higher = longer survival
Procedure, shortened: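 Each value expresses how treatment altered survival: treated-mouse outcome over vehicle-mouse outcome, both groups bearing the transplanted tumour.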

[1] = dose: 100.0 mg/kg/injection, schedule: Q01DX009 (ip), vehicle: Klucel (hydroxypropylcellulose) (HPC)
[2] = dose: 100.0 mg/kg/injection, schedule: Q04DX003 (ip), vehicle: Klucel (hydroxypropylcellulose) (HPC)
[3] = dose: 200.0 mg/kg/injection, schedule: Q04DX003 (ip), vehicle: Klucel (hydroxypropylcellulose) (HPC)
[4] = dose: 400.0 mg/kg/injection, schedule: Q04DX003 (ip), vehicle: Klucel (hydroxypropylcellulose) (HPC)
[5] = dose: 100.0 mg/kg/injection, schedule: Q04DX003 (ip), vehicle: saline
[6] = dose: 50.0 mg/kg/injection, schedule: Q01DX009 (ip), vehicle: saline with Tween-80
[7] = dose: 100.0 mg/kg/injection, schedule: Q01DX009 (ip), vehicle: saline with Tween-80
[8] = dose: 200.0 mg/kg/injection, schedule: Q01DX009 (ip), vehicle: saline with Tween-80
[9] = dose: 12.5 mg/kg/injection, schedule: Q01DX009 (ip), vehicle: Klucel (hydroxypropylcellulose) (HPC)
[10] = dose: 200.0 mg/kg/injection, schedule: Q04DX003 (ip), vehicle: saline
[11] = dose: 400.0 mg/kg/injection, schedule: Q04DX003 (ip), vehicle: saline
[12] = dose: 2.5 mg/kg/injection, schedule: Q01DX009 (ip), vehicle: saline with Tween-80
[13] = dose: 5.0 mg/kg/injection, schedule: Q01DX009 (ip), vehicle: saline with Tween-80

Measured: T/C

CC1(C)C2CCC1(C)C(OC(=O)c1ccc([N+](=O)[O-])cc1)C2OC(=O)c1ccc([N+](=O)[O-])cc1 (stereo not given)
inactive: dose: 75.0 mg/kg/injection, schedule: Q04DX003 (ip), vehicle: other 100 % of control | dose: 150.0 mg/kg/injection, schedule: Q04DX003 (ip), vehicle: other 91 % of control | dose: 300.0 mg/kg/injection, schedule: Q04DX003 (ip), vehicle: other 91 % of control

Cc1cc2nc(C)c(=O)[nH]c2cc1C
inactive: [1] 100 % of control | [2] 95 % of control | dose: 200.0 mg/kg/injection, schedule: Q01DX009 (ip), vehicle: Klucel (hydroxypropylcellulose) (HPC) 95 % of control | [3] 95 % of control | [4] 95 % of control

CC[n+]1ccc2cc(OC)c(OC)cc2c1Cc1ccc(OC)c(OC)c1
inactive: dose: 25.0 mg/kg/injection, schedule: Q01DX009 (ip), vehicle: saline 109 % of control | dose: 50.0 mg/kg/injection, schedule: Q01DX009 (ip), vehicle: saline 118 % of control | dose: 50.0 mg/kg/injection, schedule: Q04DX003 (ip), vehicle: saline 90 % of control | [5] 104 % of control

CN1C(=O)NNC(=O)c2ccccc21
inactive: [6] 106 % of control | [7] 100 % of control | [8] 97 % of control

O=C1C(Cl)=C(Cl)C(=O)C2CC=CCC12 (stereo not given)
inactive: dose: 3.13 mg/kg/injection, schedule: Q01DX001 (ip), vehicle: saline with Tween-80 95 % of control | dose: 6.25 mg/kg/injection, schedule: Q01DX001 (ip), vehicle: saline with Tween-80 114 % of control

CC(=O)[O][Pb]([CH2]C(C)C)([CH2]C(C)C)[CH2]C(C)C
inactive: dose: 0.75 mg/kg/injection, schedule: Q01DX009 (ip), vehicle: Klucel (hydroxypropylcellulose) (HPC) 107 % of control | dose: 1.5 mg/kg/injection, schedule: Q01DX009 (ip), vehicle: Klucel (hydroxypropylcellulose) (HPC) 109 % of control | dose: 3.0 mg/kg/injection, schedule: Q01DX009 (ip), vehicle: Klucel (hydroxypropylcellulose) (HPC) 105 % of control | dose: 6.0 mg/kg/injection, schedule: Q01DX009 (ip), vehicle: Klucel (hydroxypropylcellulose) (HPC) 107 % of control | dose: 12.0 mg/kg/injection, schedule: Q01DX009 (ip), vehicle: Klucel (hydroxypropylcellulose) (HPC) 107 % of control

COc1ccccc1C(C#N)N1CCCN(C(C#N)c2ccccc2OC)C1c1cc(Cl)cc(Cl)c1O (stereo not given)
inactive: [6] 95 % of control | [7] 98 % of control | [8] 98 % of control | dose: 400.0 mg/kg/injection, schedule: Q01DX009 (ip), vehicle: saline with Tween-80 91 % of control

Cc1c(Br)c(=O)n(-c2ccccc2)n1C
inactive: [9] 106 % of control | dose: 25.0 mg/kg/injection, schedule: Q01DX009 (ip), vehicle: Klucel (hydroxypropylcellulose) (HPC) 98 % of control | dose: 50.0 mg/kg/injection, schedule: Q01DX009 (ip), vehicle: Klucel (hydroxypropylcellulose) (HPC) 100 % of control and 106 % of control | [1] 106 % of control

NC(=O)Nc1cccc2ccccc12
inactive: [2] 88 % of control | dose: 200.0 mg/kg/injection, schedule: Q01DX009 (ip), vehicle: gum acacia 92 % of control | [3] 92 % of control | dose: 400.0 mg/kg/injection, schedule: Q01DX009 (ip), vehicle: gum acacia 96 % of control

Clc1ccc(C[P+](c2ccccc2)(c2ccccc2)c2ccccc2)c(Cl)c1
inactive: dose: 1.4 mg/kg/injection, schedule: Q01DX009 (ip), vehicle: saline 120 % of control | dose: 7.5 mg/kg/injection, schedule: Q01DX009 (ip), vehicle: saline 115 % of control

CC1CC(=O)C(O)C2(C)C1CC1OC(=O)C(OC(=O)c3ccccc3)C3C(C)C(O)C4(O)OCC13C42 (stereo not given)
inactive: dose: 0.12 mg/kg/injection, schedule: Q01DX009 (ip), vehicle: saline with Tween-80 110 % of control | dose: 0.25 mg/kg/injection, schedule: Q01DX009 (ip), vehicle: saline with Tween-80 121 % of control | dose: 1.0 mg/kg/injection, schedule: Q01DX009 (ip), vehicle: saline with Tween-80 118 % of control | dose: 2.0 mg/kg/injection, schedule: Q01DX009 (ip), vehicle: saline with Tween-80 121 % of control | dose: 4.0 mg/kg/injection, schedule: Q01DX009 (ip), vehicle: saline with Tween-80 112 % of control | dose: 8.0 mg/kg/injection, schedule: Q01DX009 (ip), vehicle: saline with Tween-80 116 % of control | dose: 16.0 mg/kg/injection, schedule: Q01DX009 (ip), vehicle: saline with Tween-80 118 % of control

CC1CCC2(C)CCC(C(C)C)C2(O)CC1 (stereo not given)
inactive: dose: 100.0 mg/kg/injection, schedule: Q01DX009 (ip), vehicle: saline 103 % of control | [5] 100 % of control | [10] 109 % of control | dose: 400.0 mg/kg/injection, schedule: Q01DX009 (ip), vehicle: saline 111 % of control | [11] 100 % of control

CC(C)CCSc1nc(N)nc2nc[nH]c12
inactive: dose: 100.0 mg/kg/injection, schedule: Q01DX009 (ip), vehicle: other 86 % of control | dose: 100.0 mg/kg/injection, schedule: Q04DX003 (ip), vehicle: saline with Tween-80 100 % of control | dose: 200.0 mg/kg/injection, schedule: Q01DX009 (ip), vehicle: other 90 % of control | dose: 200.0 mg/kg/injection, schedule: Q04DX003 (ip), vehicle: saline with Tween-80 109 % of control | dose: 400.0 mg/kg/injection, schedule: Q01DX009 (ip), vehicle: other 109 % of control | dose: 400.0 mg/kg/injection, schedule: Q04DX003 (ip), vehicle: saline with Tween-80 109 % of control

COc1ccc(NC(=S)N(CCC#N)C2CCCCC2)cc1
inactive: dose: 6.25 mg/kg/injection, schedule: Q01DX009 (ip), vehicle: saline with Tween-80 86 % of control | dose: 12.5 mg/kg/injection, schedule: Q01DX009 (ip), vehicle: saline with Tween-80 100 % of control | dose: 25.0 mg/kg/injection, schedule: Q01DX009 (ip), vehicle: saline with Tween-80 104 % of control | [6] 95 % of control

Cc1cc2c(c(O)c1-c1c(C)cc(O)c3c1C(=O)C=CC3=O)C(=O)C=CC2=O
inactive: dose: 1.25 mg/kg/injection, schedule: Q01DX009 (ip), vehicle: saline with Tween-80 107 % of control | [12] 114 % of control | [13] 103 % of control

CCOCCC(=O)O
inactive: [5] 104 % of control | [10] 109 % of control | [11] 90 % of control

COC1=CC(=O)c2c(O)cc(OC)c(O)c2C1=O
inactive: [12] 104 % of control | [13] 113 % of control

CCCCCCCCCCCCCCCCCCOc1ccccn1
inactive: dose: 3.12 mg/kg/injection, schedule: Q01DX009 (ip), vehicle: Klucel (hydroxypropylcellulose) (HPC) 100 % of control | dose: 6.25 mg/kg/injection, schedule: Q01DX009 (ip), vehicle: Klucel (hydroxypropylcellulose) (HPC) 104 % of control | [9] 104 % of control | [2] 95 % of control | [3] 100 % of control | dose: 400.0 mg/kg/injection, schedule: Q01DX009 (ip), vehicle: Klucel (hydroxypropylcellulose) (HPC) 89 % of control | [4] 95 % of control

COC(=O)C12CCc3cc(OC)ccc3C1=CC(=O)C2 (stereo not given)
inactive: dose: 100.0 mg/kg/injection, schedule: Q04DX003 (ip), vehicle: saline sonified 100 % of control | dose: 200.0 mg/kg/injection, schedule: Q04DX003 (ip), vehicle: saline sonified 95 % of control
